ChEMBL document CHEMBL1275271, “QSAR and docking studies of novel antileishmanial diaryl sulfides and sulfonamides” (Eur J Med Chem, 2010)

Assays:
[1] = Toxicity in po dosed mouse; conditions: in vivo
[2] = Octanol-water partition coefficient, log P of the compound
in vivo = conditions: rat, po
Leishmania donovani = test: Antileishmanial activity against Leishmania donovani; format: functional, organism-based

SMILES: O=[N+]([O-])c1cc(C(F)(F)F)cc([N+](=O)[O-])c1Sc1ccc(Cl)cc1Cl
- LD50 [1]: 780 mg/kg
- logP [2]: 6.73
- LD50 (in vivo): 600 mg/kg

SMILES: O=[N+]([O-])c1ccc(Oc2c(Cl)cccc2Cl)c([N+](=O)[O-])c1Oc1c(Cl)cccc1Cl
- IC50 (Leishmania donovani): 80 µM

SMILES: COc1ccc(Sc2c([N+](=O)[O-])cc(C#N)cc2[N+](=O)[O-])cc1
- LD50 [1]: 1100 mg/kg
- IC50 (Leishmania donovani): 0.67 µM
- logP [2]: 3.56
- LD50 (in vivo): 1400 mg/kg

SMILES: CCCN(CCC)c1c([N+](=O)[O-])cc(S(N)(=O)=O)cc1[N+](=O)[O-] [ORYZALIN]
- LD50 [1]: 1600 mg/kg
- logP [2]: 3.38
- LD50 (in vivo): 1400 mg/kg

SMILES: O=[N+]([O-])c1cc([N+](=O)[O-])c(S(=O)(=O)Nc2cccc(F)c2)c(C(F)(F)F)c1
- LD50 [1]: 880 mg/kg
- logP [2]: 4.39
- LD50 (in vivo): 620 mg/kg

SMILES: CCCN(CCC)c1c([N+](=O)[O-])cc(Sc2ccc(OC)cc2)cc1[N+](=O)[O-]
- LD50 [1]: 1600 mg/kg
- logP [2]: 6.53
- LD50 (in vivo): 1900 mg/kg

SMILES: Cc1cc(NS(=O)(=O)c2c([N+](=O)[O-])cc([N+](=O)[O-])cc2C(F)(F)F)c(Cl)cc1Cl
- LD50 [1]: 650 mg/kg
- logP [2]: 6.44
- LD50 (in vivo): 350 mg/kg

SMILES: CCCN(CCC)c1c([N+](=O)[O-])cc(S(=O)(=O)Nc2ccc(OC)cc2)cc1[N+](=O)[O-]
- IC50 (Leishmania donovani): 76 µM

SMILES: CCCN(CCC)c1c([N+](=O)[O-])cc(Sc2cc(C)c(Cl)cc2Cl)cc1[N+](=O)[O-]
- LD50 [1]: 1800 mg/kg
- logP [2]: 8.66
- LD50 (in vivo): 1600 mg/kg

SMILES: N#Cc1cc([N+](=O)[O-])c(S(=O)(=O)Nc2cccc(F)c2)c([N+](=O)[O-])c1
- LD50 [1]: 1300 mg/kg
- logP [2]: 2.51
- LD50 (in vivo): 1200 mg/kg

SMILES: Cc1cc(S(=O)(=O)c2c([N+](=O)[O-])cc(C#N)cc2[N+](=O)[O-])c(Cl)cc1Cl
- LD50 [1]: 1100 mg/kg
- logP [2]: 4.08
- LD50 (in vivo): 1000 mg/kg

SMILES: Cc1nc(Sc2nccn2-c2cc(Cl)ccc2Cl)c(C(=O)O)cc1C#N
- IC50 (Leishmania donovani): 21 µM

SMILES: CCCN(CCC)c1c([N+](=O)[O-])cc(C(N)=O)cc1[N+](=O)[O-]
- IC50 (Leishmania donovani): 32 µM

SMILES: O=C1NC(=O)c2cc([N+](=O)[O-])c(Sc3c(Cl)cccc3Cl)cc21
- IC50 (Leishmania donovani): 60 µM

SMILES: CCCCCCN(CCCCCC)c1c([N+](=O)[O-])cc(S(N)(=O)=O)cc1[N+](=O)[O-]
- IC50 (Leishmania donovani): 12 µM

SMILES: Cc1cc(S(=O)(=O)c2c([N+](=O)[O-])cc(C(F)(F)F)cc2[N+](=O)[O-])c(Cl)cc1Cl
- LD50 [1]: 1800 mg/kg
- logP [2]: 5.72
- LD50 (in vivo): 1200 mg/kg

SMILES: Cc1cc(Sc2ccc(C(F)(F)F)cc2[N+](=O)[O-])c(Cl)cc1Cl
- IC50 (Leishmania donovani): 59 µM

SMILES: Cc1cc(Sc2ncc(C(F)(F)F)cc2[N+](=O)[O-])c(Cl)cc1Cl
- IC50 (Leishmania donovani): 98.2 µM
